In the OPERA property sets (Mansouri et al. 2018):

Conditions: 22.0 °C
`C1=Cc2ccccc2C1` gave a log10 OH rate constant (cm³/molecule/s) of -10.3. `FC(Cl)C(F)(F)C(F)(F)Cl` (centres undefined) gave a log10 OH rate constant (cm³/molecule/s) of -14.1. For `CCCCSCCCC`, the log10 OH rate constant (cm³/molecule/s) was -10.4.

Same assay, conditions: 23.0 °C
For `C[C@@H]1CC[C@@H]2C[C@H]1C2(C)C`, the log10 OH rate constant (cm³/molecule/s) was -10.9. Compound `CC1(C)C2CC3C(C2)C31C` has a log10 OH rate constant (cm³/molecule/s) of -11.5. For `FC(F)(Br)C(F)(F)Br`, the log10 OH rate constant (cm³/molecule/s) was < -15.9.

Same assay, conditions: 24.0 °C
For `FC(F)(Br)Br`, the log10 OH rate constant (cm³/molecule/s) was < -15.2.

Same assay, conditions: 25.0 °C
`CCCCCCCCO` showed a log10 OH rate constant (cm³/molecule/s) of -10.8. In the case of `CCOCC`, the log10 OH rate constant (cm³/molecule/s) is reported as -10.9. `CC#N` gave a log10 OH rate constant (cm³/molecule/s) of -13.6. `C=C[N+](=O)[O-]` gave a log10 OH rate constant (cm³/molecule/s) of -11.9. Work on `CCCCCCCCCCCC` yielded a log10 OH rate constant (cm³/molecule/s) of -10.8. For `FC(Cl)(Cl)Cl`, the log10 OH rate constant (cm³/molecule/s) was < -15.3. For `CCCCON=O`, the log10 OH rate constant (cm³/molecule/s) was -11.6. For `O=[N+]([O-])C1=CCCCC1`, the log10 OH rate constant (cm³/molecule/s) was -10.4. `CON=O` showed a log10 OH rate constant (cm³/molecule/s) of -12.7. With `COS(=O)(=O)OC` the log10 OH rate constant (cm³/molecule/s) was < -12.3. With `CC(C)(C)OO` the log10 OH rate constant (cm³/molecule/s) was -11.5. With `CSC` the log10 OH rate constant (cm³/molecule/s) was -11.3. Work on `CC[N+](=O)[O-]` yielded a log10 OH rate constant (cm³/molecule/s) of -12.8. For `CCCl`, the log10 OH rate constant (cm³/molecule/s) was -12.4. Compound `C=CC[N+](=O)[O-]` has a log10 OH rate constant (cm³/molecule/s) of -10.9. `CCON=O` showed a log10 OH rate constant (cm³/molecule/s) of -12.2. Work on `C` yielded a log10 OH rate constant (cm³/molecule/s) of -14.2. For `FC(Br)(Br)Br`, the log10 OH rate constant (cm³/molecule/s) was < -15. `FC(F)(F)C(F)(F)C(Cl)Cl` showed a log10 OH rate constant (cm³/molecule/s) of -13.6. For `FC(F)(F)Br`, the log10 OH rate constant (cm³/molecule/s) was < -16. With `CCCCO[N+](=O)[O-]` the log10 OH rate constant (cm³/molecule/s) was -11.8. With `C1C2C3C2C2C1C32` (centres undefined) the log10 OH rate constant (cm³/molecule/s) was -11.7.
